The structures appear in SMILES notation. “Also recorded” adds a separate entry of the source.

One data set deals with bovine cornea epithelium. The data set can be described thus: Corneal integrity: fluorescence microscopy of DAPI-stained cornea sections after exposure. The conditions noted are these: chelator 1 mg mL^−1 in PBS pH 7.4 ± 0.2, 3 h exposure; PBS shows no disruption.
For data set [1], the system named is bovine cornea. The data set can be described thus: Transepithelial electrical resistance (TEER) of cornea in Ussing chambers. The note with it: chelator 1 mg mL^−1 in PBS in donor chamber, 120 min, 34 °C, baseline deducted; initial 2.28 ± 0.06, PBS control 1.93 ± 0.04.
Data set [2] deals with bovine cornea. The data set can be described thus: Whole eye experiment: Ca^2+ extraction from cornea, analysed by atomic absorption spectrometry. The note with it: chelator 1 mg mL^−1 in PBS pH 7.4 ± 0.2, 3 h exposure of whole bovine eye cornea, 34 °C, n = 3; PBS alone 54.67 ± 7.04 ppm. On the procedure: Calcium ion analysis was conducted using a novAA 350 system with […] software, version 4.5.0 (Analytik JENA, Germany). […] Quantitation achieved by reference to a calibration curve produced from Ca^2+ standards in ultrapure water incorporating 5% w/v lanthanum chloride as a releasing agent.

Data set [3] concerns bovine cornea. The data set can be described thus: Cornea extracts: riboflavin absorbed into cornea, ethanol extraction and HPLC. The conditions noted are these: n = 3; for Riboflavin pg mg^−1 cornea: riboflavin in PBS pH 7.4 ± 0.2 without chelator. In kind it is in vitro ADME. On the procedure:
Analysis was conducted using a PerkinElmer series 200 HPLC system comprising of 785 A UV–vis detector, series 200 quaternary pump and series 200 autosampler (PerkinElmer Inc., UK), Hamilton PRP-1 reversed phase column, 150 mm × 4.1 mm, 10 μm (part number: 79425) and data acquisition software (Peaksimple, version 4.09, SRI Inc., USA). […] Isocratic conditions were used at 25 °C with the mobile phase comprising of 20% ethanol and 80% ion-pair buffer, flow rate 0.8 mL min^−1, 10 μL injection volume, UV detector at 267 nm corresponding to riboflavin absorption λmax, a retention time of 3.05 min. Quantitation was achieved by reference to a calibration curve produced from riboflavin standards in PBS, pH 7.4 ± 0.2 at concentrations ranging from 0.01 to 25 μg mL^−1 (r^2 = 0.9996).
Corneas from the riboflavin permeability experiment were trimmed of sclera, gently blotted with tissue paper, weighed and placed in glass vials to which 5 mL absolute ethanol was added to extract absorbed riboflavin. Differences in its accumulation within the corneas between different solutions were compared. The vials were stored at room temperature shielded from light for three days. From these vials, 1 mL of extract solvent was centrifuged at 10,000 rpm for 10 min, and the supernatant transferred to autosample vials for HPLC analysis.

The nature of data set [4]: Corneal permeability of riboflavin in Franz diffusion cells. The data set is classed as in vitro ADME, bovine. Also on record: Steady-state flux of riboflavin / Papp at 240 min: dose or concentration left out as unconfirmed. The conditions noted are these: bovine, pH 7.4. How it is done: (§1) Analysis was conducted using a PerkinElmer series 200 HPLC system comprising of 785 A UV-vis detector, series 200 quaternary pump and series 200 autosampler (PerkinElmer Inc., UK), Hamilton PRP-1 reversed phase column, 150 mm × 4.1 mm, 10 μm (part number: 79425) and data acquisition software ([…], version 4.09, SRI Inc., USA). […] Bovine corneas were mounted in Franz diffusion cells (FDC), epithelium side facing the donor compartment. The receiver compartment was filled with pre-warmed and degassed PBS (16.5 mL). […] Riboflavin is known to be photodegradable ([Terekhova et al., 2011]), therefore the whole experiment was shielded with aluminium foil. Sink conditions were employed with 0.4 mL aliquots taken every 60 min for 240 min. HPLC analysis was carried out immediately after all samples had been collected to avoid drug degradation.

In data set [5] the test system is bovine cornea. The description is as above. The data set is classed as in vitro ADME. The arrangement: Steady-state flux of riboflavin / Papp at 240 min: dose or concentration left out as unconfirmed. How it is done:
as §1

Experimental for bovine cornea epithelium: A Franz diffusion cell donor chamber was placed on the cornea as a means to contain the dose; the setup was wrapped in cling-film ensuring a good seal between the donor chamber and the cornea; these were placed in a water bath at 34 ± 1 °C. Individual eyes were exposed to PBS or solutions of EDTA, EGTA or EDDS at 1 mg mL^−1 in PBS, all at pH 7.4 ± 0.2 by placing 1 mL solution onto the cornea.
From the above experiment, corneas were dissected after exposure, and sections were prepared for microscopy by setting cornea segments in OCT, quick freezing on dry ice and subsequent sectioning. […] Specimens were stained using Vectashield with DAPI mounting medium, and a glass coverslip applied. All cornea sections were examined within seven days of preparation using an AXIOCAM MRm 1.3 MP digital camera attached to a Zeiss AXIO Imager A1 fluorescent microscope, using AXIO Vs 40 V.4.8.2.0 software (Zeiss, Oberkochen, Germany). A 10× magnification eyepiece together with a 5× magnification objective lens was employed, and DAPI fluorescence filter was selected.

Take `O=C(O)CC(NCCNC(CC(=O)O)C(=O)O)C(=O)O` (stereo not drawn) [EDDS, ethylenediamine-N,N′-disuccinic acid]: the “histological changes of corneal epithelium” value (“histological changes” below) with bovine cornea epithelium was “some swelling with voids throughout this layer”. The “TEER value after 2 h” value in the data set on bovine cornea [1] worked out at 1.62 ± 0.04 kΩ cm^2. The “calcium sequestering performance from bovine cornea (Ca^2+ concentration in solution)” value (“calcium sequestering performance” below) in the data set on bovine cornea [2] is 87.60 ± 3.30 ppm.
For `O=C(O)CN(CCN(CC(=O)O)CC(=O)O)CC(=O)O` [EDTA, Ethylenediaminetetraacetic acid], the “histological changes” value in the data set on bovine cornea epithelium is “some swelling with voids throughout this layer; also recorded: perforation seems to penetrate the whole of the epithelium”. Also, the “TEER value after 2 h” value with bovine cornea [1] is on record as 1.38 ± 0.03 kΩ cm^2. Also, the “calcium sequestering performance” value in the data set with bovine cornea [2] is recorded as 98.97 ± 9.86 ppm.
For `O=C(O)CN(CCOCCOCCN(CC(=O)O)CC(=O)O)CC(=O)O` [EGTA, ethylene glycol-bis(2-aminoethylether)-N,N,N′,N′-tetraacetic acid], the “histological changes” value with bovine cornea epithelium is “intense disruption to the superficial epithelial layers and a relatively undisturbed basal layer”. The “TEER value after 2 h” value with bovine cornea [1] is recorded as 1.42 ± 0.02 kΩ cm^2. In addition, the “calcium sequestering performance” value in the data set with bovine cornea [2] turned out to be 119.57 ± 27.28 ppm.
Turning to `Cc1cc2nc3c(=O)[nH]c(=O)nc-3n(C[C@H](O)[C@H](O)[C@H](O)CO)c2cc1C` [Riboflavin, riboflavin], in the data set with bovine cornea [3] (corneas after permeability experiment, riboflavin 0.1 mg mL^−1 in PBS without chelator), the “mean amount of riboflavin extracted from cornea” value came to 50.41 ± 2.80 ng. For the same compound, the “Riboflavin pg mg^−1 cornea” value in the data set with bovine cornea [3] worked out at 62.46 ± 0.98 pg/mg; with bovine cornea [3] (listed as riboflavin), 62.46 pg/mg. Also, the Papp – broadly, a coefficient for how fast a substance crosses the barrier – at 240 min in data set [4] is 1940 ± 325 ×10⁻⁶ cm/s. Also, the “concentration of riboflavin in the receiving solution at 240 min” value with bovine cornea [5] (riboflavin 0.1 mg mL^−1 in PBS pH 7.4 without chelator, 34 °C) worked out at 5.74 ± 0.96 ng/mL. The “Steady-state flux of riboflavin” value in the data set with bovine cornea [5] (riboflavin solution in PBS without chelator) amounted to 0.0478 ± 0.0080 µmol/min.

Values taken from article PMC4111866, “Enhancement in corneal permeability of riboflavin using calcium sequestering compounds” (International Journal of Pharmaceutics, 2014).
